Laboratory results: patent US20250108036A1, “COMPOSITIONS FOR REMOVING SENESCENT CELLS AND USES THEREOF” (LIFECEUTIX CO., LTD., priority 2021, published 2025)

Tests used:
p16, p21 = assay: qRT-PCR of p16 and p21 mRNA in replicative senescent foreskin cells (Example 4); assay type: cell-based, human; settings: LX-112 3 μM; senescent untreated = 100%
Experimental: In the same manner as Example 3, natural aging of human foreskin cells was induced, treated with LX-112 at a concentration of 3 μM, and the amounts of the mRNA of p16 and p21, aging-related markers, were analyzed by qRT-PCR (quantitative real-time PCR). As a control group, foreskin cells before senescence induction were used. Specifically, cells were collected and treated with TRIzol Reagent (purchased from Thermo Fisher Scientific) to extract total RNA. The concentration of extracted total RNA was quantified using Nanodrop (purchased from Micro Digital). Genomic DNA was removed from the extracted total RNA using SuperScript IV VILO Master Mix with ezDNase Enzyme (purchased from Thermo Fisher Scientific), and cDNA was prepared. Using the synthesized cDNA, using the housekeeping gene GAPDH as a standard, qRT-PCR for p16 and p21 was performed using SFCgreen I qPCR Master Mix (purchased from SFC Probe), and was analyzed with CFX Connect Real-Time PCR Detection System (purchased from Bio Rad). […] Table 14 calculates the mRNA amounts of p16 and p21 after senescence was induced to 100%, respectively, and compared them with the mRNA amounts of p16 and p21 after treatment with LX-112.

p16 = p16 mRNA qRT-PCR in organ tissues of naturally aged mice (Example 7-2); assay type: in vivo, C57BL6J mice; settings: LX-112 70 mg/kg oral daily 21 days, aged untreated = 100%
Experimental: After 22-month-old female C57BL6J mice (purchased from KRIBB Laboratory Animal Resource Center) were adapted to the experimental environment for one week, the aged mice were randomized into an experimental group and a control group. 8-week-old mice that were not aged were used as controls. LX-112 was mixed with 0.5% CMC-Na solution (purchased from Sigma) and administered orally at a concentration of 70 mg/kg daily for 21 days. The control group was administered only the solution in the same volume. After drug administration was completed, the method described in each Example below was performed.
The mouse was sacrificed, RNA was extracted from the organ tissue of each region, and qRT-PCR was performed using the synthesized cDNA. Specifically, in order to maintain the quality of RNA during the RNA extraction process, the tissue from each collected area was immediately cut into 30 mg to 50 mg pieces, placed in RNA stabilization solution (purchased from Thermo Fisher Scientific), and absorbed into the tissue for 1 day. Afterwards, it was stored at −80° C. until use. The collected tissue was placed together with the lysate in a tube containing beads for tissue homogenization (purchased from MP Bio) and homogenized using tissue homogenization equipment (purchased from MP Bio). Total RNA was extracted from the homogenized tissues. The extraction method used an RNA extraction kit (PureLink RNA Mini Kit, purchased from Thermo Fisher Scientific) for soft tissues including liver, kidney, lung, and brain, or TRIzol Reagent (purchased from Thermo Fisher Scientific) for hard tissues including muscle, skin, fat, etc. The concentration of extracted total RNA was quantified using Nanodrop (purchased from Micro Digital) or SpectraMax iD3 Multi-Mode Microplate Reader (purchased from Molecular Device). Genomic DNA was removed from the extracted total RNA using a cDNA synthesis kit (purchased from Thermo Fisher Scientific), and cDNA was prepared. Using the synthesized cDNA, qRT-PCR was performed for each gene using the housekeeping gene β-actin as a standard, using Taqman Fast Abvanced Master Mix (purchased from Applied Biosystems), SFCgreen I qPCR Master Mix (purchased from SFC Probe), or AmfiSure qGreen qPCR Master Mix (purchased from GenDEPOT), and analyzed using the CFX Connect Real-Time PCR Detection System (purchased from Bio Rad). […] Table 22 calculates the amount of p16 mRNA after senescence was induced as 100% and compared it with the amount of p16 mRNA after treatment with LX-112. The primers used were synthesized through bionics, except that TaqMan primers (purchased from Thermo Fisher Scientific) were used for p16 and IL6.

SA-β-gal = SA-β-gal staining of tissues of doxorubicin-aged mice (Example 8-3); assay type: in vivo, C57BL6J mice; settings: stained area; doxorubicin-aged mice, LX-112 70 mg/kg oral daily 21 days
Experimental: (§1) After adapting 8-week-old male C57BL6J mice (purchased from KRIBB Laboratory Animal Resource Center) to the experimental environment for 1 week, doxorubicin, an anticancer drug, was administered intraperitoneally at a concentration of 10 mg/kg, and mice that were induced to age for more than 10 days were assigned to an experimental group and a control group. LX-112 was mixed with 0.5% CMC-Na solution (purchased from Sigma) and administered orally at a concentration of 70 mg/kg daily for 21 days. The control group was administered only the solution in the same volume. After drug administration was completed, the method described in each Example below was performed.
Mice were sacrificed in the same method in described in Example 7-3, and tissue sections were prepared from the organ tissues of each region. SA-β-gal, an aging marker was stained. […] FIG. 3 is a photographic result of staining of adipose tissue.

lipofuscin = lipofuscin staining of muscle of doxorubicin-aged mice (Example 8-4); assay type: in vivo, C57BL6J mice; settings: stained area; doxorubicin-aged mice, LX-112 70 mg/kg oral daily 21 days
Experimental: as §1
Mice were sacrificed in the same manner as in Example 7-4, and tissue sections were prepared from muscle tissue. Lipofuscin, an aging-related degenerative marker was stained.

HMGN1 = HMGN1 ELISA in culture medium of A549 cancer cells (Example 12, Table 66); assay type: cell-based, human; settings: Homo sapiens, A549, doxorubicin-induced senescent A549 cells, test compound 30 μM, ELISA, DMSO = 100; read-out: HMGN1 (amount of HMGN1 secreted in the cell culture)
A549 = assay: CellTiter-Glo cell viability of senescent A549 cancer cells (Example 12, Table 67); assay type: cell-based, human; settings: Homo sapiens, A549, doxorubicin-induced senescent A549 cancer cells, 1.1 μM test compound, CellTiter-Glo; read-out: Survival (%)
[1] = tested on: senescent cancer (A549) cells; assay: survival of senescent A549 cancer cells treated with medium supernatant of compound-killed cancer cells (Example 14, Table 70); assay type: cell-based, human
Experimental: In the same way as Examples 12 and 13, senescence of cancer (A549) cells was induced by treatment with doxorubicin or the control group (DMSO), and the cells were cultured. […] In the same manner as in Example 13, the medium supernatants comprising secreted fluid from normally proliferating and senescent cancer cells was obtained. Normally proliferating and senescent-induced cancer cells were treated with the medium supernatants.
Furthermore, other test compounds were used in the same manner in Example 12 above at high concentrations of 30 μM, 90 μM, and 270 μM, respectively, and the cultured medium supernatant comprising secreted fluid from aged cancer cells that were killed were obtained. As a result of measuring the degree of death of aged cancer cells, it was confirmed that aged cancer cells can be effectively removed, as shown in Example 12 and Table 65.

| Structure (SMILES) | mRNA (%) p16 (p16, p21) | mRNA (%) p21 (p16, p21) | p16 mRNA (%) Brain (p16) | p16 mRNA (%) Kidney (p16) | p16 mRNA (%) Liver (p16) | p16 mRNA (%) Lung (p16) | p16 mRNA (%) Muscle (p16) | p16 mRNA (%) Skin (p16) | p16 mRNA (%) eWAT (p16) | SA-β-gal (%) Kidney (SA-β-gal) | SA-β-gal (%) Liver (SA-β-gal) | SA-β-gal (%) Lung (SA-β-gal) | SA-β-gal (%) eWAT (SA-β-gal) | Lipofuscin (%) Muscle (lipofuscin) | activity at 30 µM (HMGN1) [%] | viability at 1.1 µM (A549) [%] | Survival (%) ([1]; supernatant from No Cells) | Survival (%) ([1]; supernatant from death-induced proliferating cells (LX-405 30 μM)) | Survival (%) ([1]; supernatant from death-induced senescent cells (LX-405 30 μM)) |
| --- | --- | --- | --- | --- | --- | --- | --- | --- | --- | --- | --- | --- | --- | --- | --- | --- | --- | --- | --- |
| O=c1c2ccccc2[se]n1CCn1[se]c2ccccc2c1=O [LX-112, 1,2-[bis(1,2-benzisoselenazolone-3(2H)-ketone)]ethane] | 43 (±4) % | 39 (±7) % | 89 (±5) % | 52 (±7.9) % | 62 (±3.5) % | 69 (±1) % | 76 (±3.1) % | 74 (±6.7) % | 79 (±2) % | 69.2 (±10.2) % | 67.4 (±9.9) % | 64.2 (±9.2) % | 51.4 (±13.4) % | 77.1 (±8) % | – | – | – | – | – |
| COC(=O)c1ccc([C@H]2c3[nH]c4ccccc4c3C[C@H](C(=O)OC)N2C(=O)CCl)cc1 [LX-405] | – | – | – | – | – | – | – | – | – | – | – | – | – | – | 310 | 23.8 | 98.2 (±2.8) % | 78.8 (±7.7) % | 72.5 (±5.7) % |
